{
  "source": "patent US20230133393A1",
  "about": "“DIBORIDE MICROPATTERNED SURFACES FOR CELL CULTURE” (University of Houston System, priority 2020, published 2023)",
  "tested_on": "SKOV3 cells",
  "test": "Effect of SAHA on SKOV3 3D aggregates and cellular bridges cultured on Si—TiB2 substrate",
  "assay_type": "cell-based",
  "method": "Cell culture of ovarian cancer cell lines: SKOV3 and OVCAR3 cell lines were cultured in Cancer Media (CM) ([…] with glutamine (02-0205 VWR Life Science), 1% antibiotics (Sigma-Aldrich A5955), and 0.1% insulin (ABM TM053)). For cell culture on substrates CM was supplemented with 10 ng/mL human FGF2 (Sigma-Aldrich F0291)+1% heparin (Sigma-Aldrich H3393). Cells were cultured in a humidified incubator at 37° C. with 5% CO2.\nThe inventors used their Si-diborides substrates (described in [200]) for culture of SKOV3 (ATCC® HTB-77™) cancer cells of high invasive potential. Cells were seeded on Si—TiB2 substrates (2×2 cm) at a density of 600/mm^2, and each substrate will be placed in a well of a 24-well dish and cultured in RPMI 1640 with glutamine, 20% FBS, 1% antibiotics, 0.01 mg/mL Insulin, 10 ng/ml FGF2 and 1% heparin 1 over 10 days to establish a monolayer (days 1-3) or allowed to form 3D aggregates (days 4-10). A 2×2 cm substrate can accommodate at least 500, 300 μm circle patterns (aka 500 3D aggregates of ˜150-200 μm diameter and 60-80 μm thickness). Based on preliminary data, the rate of “cellular bridge” formation is 13%/substrate or 50%/aggregate. As shown in FIGS. 9A-C, FIGS. 10A-C and FIG. 11A-B, highly invasive SKOV3 begin as monolayers and then self-assemble to form 3D aggregates. Importantly, the inventors are able to control dynamics of aggregation and size and number of aggregates by tuning pattern geometry and cell seeding density. 3D aggregates of static (compact aggregates without any migratory sequalae) and migratory phenotype (identified via cells migrating away from an aggregate and establishing connections with neighboring aggregates; see FIGS. 12A-B) can be identified post-culturing at day 2, day 4, day 6 and day 8. […] Thus, these capture time points have data on cell monolayers (Day 2), self-assembly (Days 3-4) and compact 3D aggregates (Days 5-8). Migratory 3D aggregate phenotypes are visible at Days 5 with maximum numbers of cellular bridges across aggregates seen at Days 6-7. […]",
  "note": "Entries after “also recorded” stand apart in the source; their conditions may differ.",
  "data": [
    {"smiles": "O=C(CCCCCCC(=O)Nc1ccccc1)NO", "note": "[SAHA, suberoylanilide hydroxamic acid]", "values": [
      {"measurement": "effect on size of 3D aggregates", "setting": "3 μM SAHA, treatment on day 7 post-seeding", "value": "reduce the size of 3D aggregates"},
      {"measurement": "effect on cellular bridges (invading multicellular microstructures)", "setting": "3 μM SAHA, treatment on day 7 post-seeding, imaged Day 9", "value": "disassociates invading multicellular microstructures; also recorded: loss of cellular bridges"},
      {"measurement": "reduction in size (aggregate depth) post-treatment with SAHA", "setting": "SKOV3 3D aggregates on Si—TiB2, treated day 7 for 48 hours, compared to controls, mean±SEM, n=3, p<0.001", "value": "~50", "unit": "%"}
    ]}
  ]
}
